Laboratory results published in patent US11712426B2, “Metallo-liothyronine” (Synthonics, Inc., priority 2018, dated 2023).

Columns and labels:
[1] = plasma profiles of Na(HT3), Zn(HT3)2 and [Zn(T3)]n after oral administration (Example 11); format: in vivo, male Sprague Dawley rats; conditions: for Cmax average / AUC average / FWHM average (Full Width at Half Maximum): PO capsule; for Cmax average: D = duodenum targeting (Eudragit L100-55) for Zn compounds, S = stomach (uncoated gel cap) for Na(HT3); for AUC average / FWHM average (Full Width at Half Maximum): D for Zn compounds, S for Na(HT3)
Protocol: Duodenum targeting (D) is accomplished by hand coating caps with Eudragit L100-55 (Acryl-Eze, water solvent) designed to dissolve in the duodenum at pH ca. 5.5. Stomach targeting (S) is by using uncoated gel caps.
The Full Width at Half Maximum (FWHM), where Width is measured along the time axis, and Half Maximum is ½Cmax, is a parameter used to evaluate the degree of extended release of drug absorption.

[2] = cited from earlier work; for pKa 1 / pKa 2 / pKa 3: Table 1; for pKa of the carboxylic acid(s): carboxylic acid / COOH group
[3] = in vivo; cited from earlier work
[4] = pH 5.0 and above; cited from earlier work

SMILES	pKa 1 [2]	pKa 2 [2]	also measured
N[C@@H](Cc1cc(I)c(Oc2ccc(O)c(I)c2)c(I)c1)C(=O)[O-].N[C@@H](Cc1cc(I)c(Oc2ccc(O)c(I)c2)c(I)c1)C(=O)[O-].[Zn+2] [Zn(HT3)2, Bis-T3 Zinc]			AUC with respect to simulated Cytomel ([1]; PO): comparable AUC; Cmax with respect to simulated Cytomel ([1]; PO): blunted Cmax; Cmax average [1]: 0.24 ng/mL; AUC average [1]: 3.45 ng·h/mL; FWHM average (Full Width at Half Maximum) [1]: 16.6 h
CCn1cc(C(=O)O)c(=O)c2cnc(N3CCNCC3)nc21 [Pipemidic acid]	5.42	8.18	
C[C@H]1c2cccc(O)c2C(=O)C2=C(O)[C@]3(O)C(=O)C(C(N)=O)=C(O)[C@@H](N(C)C)[C@@H]3[C@@H](O)[C@@H]21 [Doxycycline]	3.02	7.97	pKa 3 [2]: 9.15
CO[C@@]1(NC(=O)C2SC(=C(C(N)=O)C(=O)O)S2)C(=O)N2C(C(=O)O)=C(CSc3nnnn3C)CS[C@@H]21 (stereo partly shown) [Cefotetan]	ca. 2	ca. 3	pKa of the carboxylic acid(s) [2]: 2-3
CN1CCN(c2cc3c(cc2F)c(=O)c(C(=O)O)cn3-c2ccc(F)cc2)CC1 [Difloxacin]	5.66	7.24	
C=C1c2c(Cl)ccc(O)c2C(=O)C2=C(O)[C@]3(O)C(=O)C(C(N)=O)=C(O)[C@@H](N(C)C)[C@@H]3[C@@H](O)[C@H]12 [Meclocycline]	4.05	6.87	pKa 3 [2]: 9.59
N[C@@H](Cc1cc(I)c(Oc2ccc(O)c(I)c2)c(I)c1)C(=O)[O-].[Na+] [Na(HT3)]			Cmax average [1]: 0.45 ng/mL; AUC average [1]: 3.71 ng·h/mL; FWHM average (Full Width at Half Maximum) [1]: 4.9 h
N[C@@H](Cc1cc(I)c(Oc2ccc(O)c(I)c2)c(I)c1)C(=O)O [Example T3, triiodothyronine]			pKa (physchem): 8.94
CN(Cc1cnc2nc(N)nc(N)c2n1)c1ccc(C(=O)N[C@@H](CCC(=O)O)C(=O)O)cc1 [Methotrexate]	4.8		
CN(C)[C@@H]1C(O)=C(C(N)=O)C(=O)[C@@]2(O)C(O)=C3C(=O)c4c(O)cccc4[C@@](C)(O)[C@H]3[C@H](O)[C@@H]12 [Oxytetracycline]	3.22	7.46	pKa 3 [2]: 8.94
CN1CCN(c2c(F)cc3c(=O)c(C(=O)O)cn(CCF)c3c2F)CC1 [Fleroxacin]	5.46	8.00	
CC1(C)S[C@@H]2[C@H](NC(=O)[C@H](N)c3ccc(O)cc3)C(=O)N2[C@H]1C(=O)O [Amoxicillin]	6.71	9.41	pKa of the carboxylic acid(s) [2]: 6.71; pKa of the phenol ([2]; phenol group): 9.41
CCN1CCN(c2cc3c(cc2F)c(=O)c(C(=O)O)cn3C2CC2)CC1 [Enrofloxacin]	3.85	6.19	
CCCCC(=O)N(Cc1ccc(-c2ccccc2-c2nnn[nH]2)cc1)[C@H](C(=O)O)C(C)C [Valsartan]			bioavailability [3]: about 25%; in vitro dissolution [4]: complete and rapid
CCn1cc(C(=O)O)c(=O)c2cc(F)c(N3CCNCC3)nc21 [Enoxacin]	6.00	8.50	
CN1C[C@@H]2C[C@H]1CN2c1cc2c(cc1F)c(=O)c(C(=O)O)cn2C1CC1 [Danofloxacin]	6.07	8.56	
CN1CCN(c2c(F)cc3c(=O)c(C(=O)O)cn4c3c2OCN4C)CC1 [Marbofloxacin]	5.69	8.02	
O=C(O)c1cn(-c2ccc(F)cc2)c2cc(N3CCNCC3)c(F)cc2c1=O [Sarafloxacin]	5.62	8.18	
CC1COc2c(N3CCN(C)CC3)c(F)cc3c(=O)c(C(=O)O)cn1c23 (stereo not shown) [Ofloxacin]	6.22	7.81	
CN(C)[C@@H]1C(O)=C(C(N)=O)C(=O)[C@@]2(O)C(O)=C3C(=O)c4c(O)ccc(Cl)c4[C@@](C)(O)[C@H]3C[C@@H]12 [Chlortetracycline]	3.33	7.55	pKa 3 [2]: 9.33
CN(C)[C@@H]1C(O)=C(C(N)=O)C(=O)[C@@]2(O)C(O)=C3C(=O)c4c(O)ccc(Cl)c4[C@@H](O)[C@H]3C[C@@H]12 [Demeclocycline]	3.37	7.36	pKa 3 [2]: 9.44
